Several values for one entry are separate records, joined by “and”; a condition that tells them apart may be missing. Equal values may be shown once.
Legend:
[1] = Post-procedure plasma exposure (salivation study); type: in vivo, Sprague Dawley rats
Procedure: An in vivo primary pharmacology study evaluating the fesoterodine fumarate dose-response antagonistic effect on Compound 1 induced salivation in anaesthetized male Sprague Dawley rats was conducted. […] Intravenous fesoterodine doses were administered at […]. Fesoterodine was dosed 10 minutes prior to dosage of Compound 1. All animals were normal with no observed abnormality detected in clinical signs or behavior. Salivation was measured by using oral dry swab in anesthetized rats with the calculated difference between the dry swab weight and the wet swab weight indicating the weight of saliva produced. Samples were collected post-dosing for one hour at 10-minute intervals.
At the end of the study period, plasma samples were collected to measure exposure of Compound 1, fesoterodine fumarate, and fesoterodine active metabolite 5-hydroxymethyl tolterodine (5-HMT), also referred to as desfesoterodine, is summarized in Table 2.

[2] = Plasma concentrations during 7-day oral dosing in beagle dogs; type: in vivo
[3] = Group 2: fesoterodine fumarate 3 mg/kg/day PO alone, Day 1, 0.25 h
[4] = Group 2: fesoterodine fumarate 3 mg/kg/day PO alone, Day 1, 0.5 h
[5] = Group 2: fesoterodine fumarate 3 mg/kg/day PO alone, Day 1, 1 h
[6] = Group 2: fesoterodine fumarate 3 mg/kg/day PO alone, Day 1, 2 h
[7] = Group 2: fesoterodine fumarate 3 mg/kg/day PO alone, Day 1, 4 h
[8] = Group 2: fesoterodine fumarate 3 mg/kg/day PO alone, Day 1, 8 h
[9] = Group 2: fesoterodine fumarate 3 mg/kg/day PO alone, Day 7, 0.25 h
[10] = Group 2: fesoterodine fumarate 3 mg/kg/day PO alone, Day 7, 0.5 h
[11] = Group 2: fesoterodine fumarate 3 mg/kg/day PO alone, Day 7, 1 h
[12] = Group 2: fesoterodine fumarate 3 mg/kg/day PO alone, Day 7, 2 h
[13] = Group 2: fesoterodine fumarate 3 mg/kg/day PO alone, Day 7, 4 h
[14] = Group 2: fesoterodine fumarate 3 mg/kg/day PO alone, Day 7, 8 h
[15] = Group 3: Compound 1 1.5 mg/kg/day PO + fesoterodine fumarate 3 mg/kg/day PO, Day 1, 0.250 h

Question: Which results are given for `CC(C)N(CCC(c1ccccc1)c1cc(CO)ccc1O)C(C)C` (stereo not shown) [desfesoterodine, 5-hydroxymethyl tolterodine]?
Answer: Plasma Concentration 1-Hour Post-procedure (mean value), Desfesoterodine (5-HMT) ([1]; Fesoterodine 0.0078 mg/mL + Compound 1 (1.5 mg/kg)): BLQ; Plasma Concentration 1-Hour Post-procedure (mean value), Desfesoterodine (5-HMT) ([1]; Fesoterodine 0.0156 mg/mL + Compound 1 (1.5 mg/kg)): BLQ; Plasma Concentration 1-Hour Post-procedure (mean value), Desfesoterodine (5-HMT) ([1]; Fesoterodine 0.0312 mg/mL + Compound 1 (1.5 mg/kg)): BLQ; Plasma Concentration 1-Hour Post-procedure (mean value), Desfesoterodine (5-HMT) ([1]; Fesoterodine 0.0625 mg/mL + Compound 1 (1.5 mg/kg)): BLQ; Plasma Concentration 1-Hour Post-procedure (mean value), Desfesoterodine (5-HMT) ([1]; Fesoterodine 0.125 mg/mL + Compound 1 (1.5 mg/kg)): BLQ; Plasma Concentration 1-Hour Post-procedure (mean value), Desfesoterodine (5-HMT) ([1]; Fesoterodine 0.25mg/mL + Compound 1 (1.5 mg/kg)): 5.15 ng/mL; Plasma Concentration 1-Hour Post-procedure (mean value), Desfesoterodine (5-HMT) ([1]; Fesoterodine 0.5 mg/mL + Compound 1 (1.5 mg/kg)): 6.19 ng/mL; Plasma concentration of desfesoterodine, Mean [2, 3]: 87.775 ng/mL; Plasma concentration of desfesoterodine, individual animals D2001-D2005 [2, 3]: 34.2 ng/ml and 267 ng/ml and 14 ng/ml and BQL and 35.9 ng/ml; Plasma concentration of desfesoterodine, Mean [2, 4]: 75.32 ng/mL; Plasma concentration of desfesoterodine, individual animals D2001-D2005 [2, 4]: 68.4 ng/mL and 176 ng/mL and 75.3 ng/mL and 23.2 ng/mL and 33.7 ng/mL; Plasma concentration of desfesoterodine, Mean [2, 5]: 53.38 ng/mL; Plasma concentration of desfesoterodine, individual animals D2001-D2005 [2, 5]: 31.9 ng/mL and 104 ng/mL and 49.5 ng/mL and 67.6 ng/mL and 13.9 ng/mL; Plasma concentration of desfesoterodine, Mean [2, 6]: 25.296 ng/mL; Plasma concentration of desfesoterodine, individual animals D2001-D2005 [2, 6]: 15.6 ng/mL and 48.4 ng/mL and 15.7 ng/mL and 41.4 ng/mL and 5.38 ng/mL; Plasma concentration of desfesoterodine, Mean [2, 7]: 10.096 ng/mL; Plasma concentration of desfesoterodine, individual animals D2001-D2005 [2, 7]: 12.9 ng/mL and 15.4 ng/mL and 3.93 ng/mL and 14.9 ng/mL and 3.35 ng/mL; Plasma concentration of desfesoterodine, Mean [2, 8]: 3.3175 ng/mL; Plasma concentration of desfesoterodine, individual animals D2001-D2005 [2, 8]: 4.42 ng/ml and 1.74 ng/ml and 2.96 ng/ml and 4.15 ng/ml and BQL; Plasma concentration of desfesoterodine, individual animals D2001-D2005 ([2]; Group 2: fesoterodine fumarate 3 mg/kg/day PO alone, Day 1, 24 h): BQL; Plasma concentration of desfesoterodine, individual animals D2001-D2005 ([2]; Group 2: fesoterodine fumarate 3 mg/kg/day PO alone, Day 7, 0 h): 1.13 ng/ml and BQL (4×); Plasma concentration of desfesoterodine, Mean [2, 9]: 103.4 ng/mL; Plasma concentration of desfesoterodine, individual animals D2001-D2005 [2, 9]: 15.3 ng/mL and 315 ng/mL and 121 ng/mL and 47.3 ng/mL and 18.4 ng/mL; Plasma concentration of desfesoterodine, Mean [2, 10]: 167.64 ng/mL; Plasma concentration of desfesoterodine, individual animals D2001-D2005 [2, 10]: 318 ng/mL and 274 ng/mL and 154 ng/mL and 75.6 ng/mL and 16.6 ng/mL; Plasma concentration of desfesoterodine, Mean [2, 11]: 118.7 ng/mL; Plasma concentration of desfesoterodine, individual animals D2001-D2005 [2, 11]: 173 ng/mL and 232 ng/mL and 111 ng/mL and 65.7 ng/mL and 11.8 ng/mL; Plasma concentration of desfesoterodine, Mean [2, 12]: 78.62 ng/mL; Plasma concentration of desfesoterodine, individual animals D2001-D2005 [2, 12]: 91.9 ng/mL and 145 ng/mL and 72.6 ng/mL and 57.8 ng/mL and 25.8 ng/mL; Plasma concentration of desfesoterodine, Mean [2, 13]: 45.66 ng/mL; Plasma concentration of desfesoterodine, individual animals D2001-D2005 [2, 13]: 51.4 ng/mL and 48.6 ng/mL and 44 ng/mL and 40.8 ng/mL and 43.5 ng/mL; Plasma concentration of desfesoterodine, Mean [2, 14]: 8.066 ng/mL; Plasma concentration of desfesoterodine, individual animals D2001-D2005 [2, 14]: 8.12 ng/mL and 7.08 ng/mL and 6.52 ng/mL and 13.8 ng/mL and 4.81 ng/mL; Plasma concentration of desfesoterodine, individual animals D2001-D2005 ([2]; Group 2: fesoterodine fumarate 3 mg/kg/day PO alone, Day 7, 24 h): BQL; Plasma concentration of desfesoterodine, individual animals D3001-D3005 ([2]; Group 3: Compound 1 1.5 mg/kg/day PO + fesoterodine fumarate 3 mg/kg/day PO, Day 1, 0.00 h): BQL; Plasma concentration of desfesoterodine, Mean [2, 15]: 125 ng/mL; Plasma concentration of desfesoterodine, individual animals D3001-D3005 [2, 15]: 225 ng/mL and 35.2 ng/mL and 333 ng/mL and 23.3 ng/mL and 9.33 ng/mL
